Here are results for 6 compounds from patent US7563467B2, “Use of an Opuntia ficus-indica extract and compounds isolated therefrom for protecting nerve cells” (Korea Institute of Science and Technology, priority 2001, dated 2009).

In experiment [1] the test system is primary cultured rat cerebrocortical neurons. Description: Inhibition of xanthine/xanthine oxidase-induced neurotoxicity (LDH release). In kind it is cell-based, Sprague-Dawley rat. Particulars: for IC50: Cerebrocortical neuron, isolated compounds, rat cerebrocortical neurons, LDH. The procedure:
(§1) Namely, the cerebral cortices of Sprague-Dawley rat embryos at 16-18 days of gestation were isolated, and meninges […] removed therefrom using a dissecting microscope. The tissue thus obtained was separated into single cells by trituration using a Pasteur pipette in a medium (MEM, Gibco BRL) containing 25 mM glucose, 5% FBS, 5% horse serum and 2 mM L-glutamine. […] A portion of the culture solution was replaced with a fresh culture media twice per week, and cultures were treated with 10 μM cytosine arabinoside for 24 to 72 hours at day 7 to 9 after planting to inhibit the growth of non-neuronal cells. The cultured cells at day 10 to 14 after planting were used in experiments. […] Data were calculated as percentages of the control LDH activity in the culture medium exposed to the respective oxidative insult in the absence of test principles. The inhibitory activity of a test sample for the oxidative nerve cell damage was calculated from the amount of released LDH relative to that of an unchanged control.

For experiment [2] the test system is unchanged. In words: Inhibition of hydrogen peroxide-induced neurotoxicity (LDH release). Format: cell-based, Sprague-Dawley rat. Particulars: for IC50: Cerebrocortical neuron. The method, then: as §1
Experiment [3] in a line: DPPH radical scavenging activity (electron donating ability). Particulars: for DPPH radical scavenging activity (IC50): isolated compounds.
The nature of experiment [4]: Superoxide anion radical scavenging activity (xanthine/xanthine oxidase, NBT). Conditions: for Superoxide anion radical scavenging activity (IC50): isolated compounds.
Protocol: Test sample solutions of various concentrations were each mixed with 0.1 mM xanthine, 0.1 mM EDTA, 50 μg/Ml bovine serum albumin (BSA), 25 mM nitroblue tetrazolium (NBT), 40 mM Na2CO3 and 7×10^−3 unit XOD to a final concentration of 200 μl and reacted at 25° C. for 20 min. 6.6 μl of 6 mM CuCl2 was added to the reaction mixture to stop the reaction, and the absorbance of the reaction mixture was measured at 560 nm to determine the amount of formazane.
Experiment [5] has as its system cultured rat cerebral hippocampus cells and cortex cells. Description: Inhibition of NMDA-induced neurotoxicity (LDH release). Particulars: for inhibition at 9 µg/mL / inhibition at 30 µg/mL: Rattus norvegicus, 100 μM NMDA; for inhibition at 9 µg/mL: 9 μg/Ml; for inhibition at 30 µg/mL: 30 μg/Ml. Format: cell-based, SD rat. The procedure: The hippocampus and cortex were extracted from the cerebral tissue of 17-day old fetus of a pregnant SD rat using a microscope. The extracted hippocampus and cortex were each separated into discrete single cells using a pipette, and the cells obtained therefrom by centrifuging were inoculated into a 96-well plate coated with poly-L-lysine. […] After 72 hours incubation, the medium was replaced with the same medium but lacking glutamate, and the cells were further incubated. […] The cultured cells prepared in Reference Example 6 were treated with 100 μM NMDA (Sigma) for 2 hours to induce cerebral cell damage, with or without the presence of a fixed amount of a test sample. After 24 hours, the amount of LDH released into the culture solution was measured using an LDH measuring kit (Boehringer Mannheim).

For experiment [6], the system named is rat model of transient focal cerebral ischemic damage. Description: Neurological score after middle cerebral artery occlusion. Conditions: for Neurological score: 10 point means normal, average ± standard error.
Experiment [7] shares this test system. Description: Transient focal cerebral ischemia (middle cerebral artery occlusion and reperfusion), TTC infarction volume and swelling. In kind it is in vivo, Sprague-Dawley rat. Particulars: one day after occlusion; for Corrected total infarction volume: corrected for swelling; for Corrected total infarction volume / Swelling ratio: rat MCAO, 10 mg/kg intraperitoneally; for Infarction volume, cerebral cortex / Infarction volume, corpus striatum / Infarction volume, total: rat MCAO 120 min and reperfusion, 10 mg/kg intraperitoneally about 30 min after ischemia.

Experiment [8] has as its system cultured rat cerebral hippocampus cells and cortex cells. Description: Inhibition of growth factor withdrawal-induced neurotoxicity (LDH release). Format: cell-based, SD rat. The method, then: The hippocampus and cortex were extracted from the cerebral tissue of 17-day old fetus of a pregnant SD rat using a microscope. The extracted hippocampus and cortex were each separated into discrete single cells using a pipette, and the cells obtained therefrom by centrifuging were inoculated into a 96-well plate coated with poly-L-lysine. […] After 72 hours incubation, the medium was replaced with the same medium but lacking glutamate, and the cells were further incubated. […] The cultured cells prepared in Reference Example 6 were cultured in […] containing 2% B27 supplementary nutrient, and then, the culture solution was replaced with the same […] but lacking B27 supplementary nutrient to induce cell death caused by undernutrition. After 24 hours, the amount of LDH released by cell necrosis was measured using an LDH measuring kit (Boehringer Mannheim) to quantify the extent of cell death.

Setting [9] is: isolated compounds, rat cerebrocortical neurons, LDH.
The mark [10] stands for this setting: 30 min after occlusion of middle cerebral artery.
The mark [11] stands for this setting: 24 hour after occlusion of middle cerebral artery, 10 mg/kg intraperitoneally.

Each structure is given as a SMILES string. ≈ marks a conversion by molar mass, not a printed value. Entries after “also recorded” stand apart in the source; their conditions may differ. Marks after values point to notes of the source that are not given here.

In the case of `O=C1c2c(O)cc(O)cc2O[C@H](c2ccc(O)cc2)[C@H]1O` [Dihydrokaempferol, dihydrokaempferol], the 50% inhibitory concentration (IC50) in experiment [1] and in experiment [2] (setting [9]) was above 300 µg/mL each time. Moreover, in experiment [3], the “DPPH radical scavenging activity (IC50)” value is above 50 µg/mL. Also, the “Superoxide anion radical scavenging activity (IC50)” value in experiment [4] was above 50 µg/mL.
As for `O=C1c2c(O)cc(O)cc2O[C@H](c2ccc(O)c(O)c2)[C@H]1O` [Dihydroquercetin, dihydroquercetin], in experiment [1], the “Inhibition of xanthine/xanthine oxidase-induced neurotoxicity (in words)” value was “strongly inhibit” and the midpoint of inhibition, the IC50, lay at 16.6 µg/mL (≈ 54.6 µM). Moreover, in experiment [2], the “Inhibition of hydrogen peroxide-induced neurotoxicity (in words)” value is given as “strongly inhibit”. In addition, the IC50 in experiment [2] (setting [9]) was 7.8 µg/mL (≈ 25.6 µM). In experiment [3], the “DPPH radical scavenging activity (in words)” value is “potent” and the “DPPH radical scavenging activity (IC50)” value was 4.49 µg/mL. Further, in experiment [5], the “Inhibition of NMDA-induced neurotoxicity (in words)” value is “inhibit”, the inhibition at 9 µg/mL came to 33% and 30 µg/mL produced 47% inhibition. The same compound yielded a Neurological score in experiment [6] (setting [10]) of 2.33 ± 0.16. Besides, the Neurological score in experiment [6] (setting [11]) is given as 3.00 ± 0.33. Further, in experiment [4], the “Superoxide anion radical scavenging activity (in words)” value is “potent” and the “Superoxide anion radical scavenging activity (IC50)” value was 2.48 µg/mL. In experiment [7], the “Corrected total infarction volume” value is 130.7 ± 13.1 mm^3; the “Infarction volume, cerebral cortex” value was 169.4 ± 12.7 mm^3; the “Infarction volume, corpus striatum” value worked out at 30.1 ± 4.3 mm^3; the “Infarction volume, total” value worked out at 199.5 ± 16.5 mm^3. For the same compound, the Swelling ratio in experiment [7] was 11.9 ± 0.5%.
On to `COc1c(-c2ccc(O)cc2)oc2cc(O)cc(O)c2c1=O` [Kaempferol 3-methyl ether, kaempferol 3-methyl ether], for which the “Inhibition of hydrogen peroxide-induced neurotoxicity (IC50)” value in experiment [2] (setting [9]) is above 300 µg/mL. Moreover, in experiment [3], the “DPPH radical scavenging activity (IC50)” value is above 50 µg/mL. In experiment [4], the “Superoxide anion radical scavenging activity (IC50)” value was above 50 µg/mL.
Take `O=c1c(O)c(-c2ccc(O)cc2)oc2cc(O)cc(O)c12` [Kaempferol, kaempferol]: in experiment [1], the “Inhibition of xanthine/xanthine oxidase-induced neurotoxicity (in words)” value is “strongly inhibit” and the IC50 is 24.9 µg/mL (≈ 87 µM). Moreover, the “Inhibition of hydrogen peroxide-induced neurotoxicity (in words)” value in experiment [2] is listed as “strongly inhibit”. In addition, the IC50 in experiment [2] (setting [9]) was 29.7 µg/mL (≈ 104 µM). In experiment [3], the “DPPH radical scavenging activity (IC50)” value was above 50 µg/mL. Besides, the “Superoxide anion radical scavenging activity (IC50)” value in experiment [4] is above 50 µg/mL.
As for `COc1c(-c2ccc(O)c(O)c2)oc2cc(O)cc(O)c2c1=O` [Quercetin 3-methyl ether, quercetin 3-methyl ether], in experiment [1], the “Inhibition of xanthine/xanthine oxidase-induced neurotoxicity (in words)” value is listed as “strongly inhibit; also recorded: highest inhibitory activity” and 0.65 µg/mL (≈ 2.06 µM) corresponded to half-maximal inhibition (IC50). The “Inhibition of growth factor withdrawal-induced neurotoxicity (in words)” value in experiment [8] is given as “inhibited”. At 9 µg/mL the inhibition in experiment [8] (Rattus norvegicus, 9 μg/Ml) was 31%. This compound also returned an inhibition at 30 µg/mL in experiment [8] (Rattus norvegicus, 30 μg/Ml) of 86%. The “Inhibition of hydrogen peroxide-induced neurotoxicity (in words)” value in experiment [2] was “strongly inhibit; also recorded: highest inhibitory activity”. Further, the IC50 in experiment [2] (setting [9]) was 0.6 µg/mL (≈ 1.9 µM). Further, in experiment [3], the “DPPH radical scavenging activity (in words)” value is listed as “potent” and the “DPPH radical scavenging activity (IC50)” value came out at 3.76 µg/mL. Besides, in experiment [5], the “Inhibition of NMDA-induced neurotoxicity (in words)” value is “inhibit”, the inhibition at 9 µg/mL was 21% and the inhibition at 30 µg/mL was 54%. Moreover, the “Neurological score compared with the control (in words)” value in experiment [6] is given as “significantly higher”. Besides, the Neurological score in experiment [6] (setting [10]) is 2.36 ± 0.15. The Neurological score in experiment [6] (setting [11]) is on record as 4.81 ± 0.44. In experiment [4], the “Superoxide anion radical scavenging activity (in words)” value was “potent” and the “Superoxide anion radical scavenging activity (IC50)” value turned out to be 4.77 µg/mL. Moreover, in experiment [7], the “Corrected total infarction volume” value is 81.6 ± 17.8* mm^3; the “Infarction volume, cerebral cortex” value was 81.2 ± 20.8* mm^3; the “Infarction volume, corpus striatum” value amounted to 28.9 ± 3.1 mm^3; the “Infarction volume, total” value is reported as 110.1 ± 22.9* mm^3. Besides, the Swelling ratio in experiment [7] is 5.8 ± 0.7 %.
As for `O=c1c(O)c(-c2ccc(O)c(O)c2)oc2cc(O)cc(O)c12` [Quercetin, quercetin], in experiment [1], the “Inhibition of xanthine/xanthine oxidase-induced neurotoxicity (in words)” value is recorded as “strongly inhibit” and the IC50 was found to be 5.5 µg/mL (≈ 18.2 µM). Moreover, in experiment [2], the “Inhibition of hydrogen peroxide-induced neurotoxicity (in words)” value is “strongly inhibit”. Further, in experiment [2] (setting [9]), it took 4.1 µg/mL (≈ 13.6 µM) to reach half-maximal inhibition (IC50). In experiment [3], the “DPPH radical scavenging activity (in words)” value is reported as “potent” and the “DPPH radical scavenging activity (IC50)” value turned out to be 2.89 µg/mL. In experiment [6] (setting [10]), this compound yielded a Neurological score of 2.44 ± 0.24. Further, in experiment [6] (setting [11]), the Neurological score was determined as 4.56 ± 0.53. Besides, the “Superoxide anion radical scavenging activity (IC50)” value in experiment [4] was above 50 µg/mL. In experiment [7], the “Corrected total infarction volume” value was determined as 110.6 ± 15.8 mm^3; the “Infarction volume, cerebral cortex” value is given as 130.5 ± 18.6 mm^3; the “Infarction volume, corpus striatum” value worked out at 30.1 ± 4.9 mm^3; the “Infarction volume, total” value is recorded as 161.1 ± 21.4 mm^3. Further, the Swelling ratio in experiment [7] turned out to be 9.1 ± 1.1%.
